Measurements: PubChem BioAssay (NCI)
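GI50 marks 50% less growth. Definition used: TGI = concentration required for complete inhibition of growth.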

What was measured:
Experiment in all cases: inhibition of tumour cell growth, NCI panel, 384-well format
LOX IMVI melanoma = tested on: LOX IMVI melanoma
NCI-H522 lung = tested on: NCI-H522 lung
786-0 renal = tested on: 786-0 renal
SK-MEL-28 melanoma = tested on: SK-MEL-28 melanoma
U251 glioblastoma = tested on: U251 glioblastoma
ACHN renal = tested on: ACHN renal
SF-295 CNS = tested on: SF-295 CNS
HS 578T breast = tested on: HS 578T breast
HL-60(TB) leukemia = tested on: HL-60(TB) leukemia
HCT-15 colon = tested on: HCT-15 colon
RXF 393 renal = tested on: RXF 393 renal
HCT-116 colon = tested on: HCT-116 colon
SF-539 CNS = tested on: SF-539 CNS
A549 NSCLC = tested on: A549 NSCLC
UACC-62 melanoma = tested on: UACC-62 melanoma
SK-MEL-2 melanoma = tested on: SK-MEL-2 melanoma
MALME-3M melanoma = tested on: MALME-3M melanoma
SW-620 colon = tested on: SW-620 colon
CCRF-CEM leukemia = tested on: CCRF-CEM leukemia
M14 melanoma = tested on: M14 melanoma
UO-31 renal = tested on: UO-31 renal
CAKI-1 renal = tested on: CAKI-1 renal
T-47D breast = tested on: T-47D breast
SK-MEL-5 melanoma = tested on: SK-MEL-5 melanoma
OVCAR-8 ovarian = tested on: OVCAR-8 ovarian
DU-145 prostate = tested on: DU-145 prostate
MOLT-4 leukemia = tested on: MOLT-4 leukemia
COLO 205 colon = tested on: COLO 205 colon
HOP-62 NSCLC = tested on: HOP-62 NSCLC
MCF7 breast = tested on: MCF7 breast
OVCAR-4 ovarian = tested on: OVCAR-4 ovarian
HCC-2998 colon = tested on: HCC-2998 colon
HOP-92 NSCLC = tested on: HOP-92 NSCLC
SF-268 CNS = tested on: SF-268 CNS
EKVX NSCLC = tested on: EKVX NSCLC
MDA-MB-435 melanoma = tested on: MDA-MB-435 melanoma
K-562 leukemia = tested on: K-562 leukemia
MDA-MB-231 breast = tested on: MDA-MB-231 breast
NCI-H460 NSCLC = tested on: NCI-H460 NSCLC
TK-10 renal = tested on: TK-10 renal
NCI-H23 lung = tested on: NCI-H23 lung
OVCAR-5 ovarian = tested on: OVCAR-5 ovarian
SK-OV-3 ovarian = tested on: SK-OV-3 ovarian
PC-3 prostate = tested on: PC-3 prostate
BT-549 breast = tested on: BT-549 breast
A498 renal = tested on: A498 renal
KM12 colon = tested on: KM12 colon
OVCAR-3 ovarian = tested on: OVCAR-3 ovarian
SNB-19 CNS = tested on: SNB-19 CNS
RPMI-8226 leukemia = tested on: RPMI-8226 leukemia
MDA-MB-468 breast = tested on: MDA-MB-468 breast
NCI-H322M lung = tested on: NCI-H322M lung
NCI-H226 lung = tested on: NCI-H226 lung
UACC-257 melanoma = tested on: UACC-257 melanoma
NCI/ADR-RES ovarian = tested on: NCI/ADR-RES ovarian
SN12C renal = tested on: SN12C renal
HT29 colon = tested on: HT29 colon
IGROV1 ovarian = tested on: IGROV1 ovarian

Structure (SMILES): Cc1noc(C)c1-c1cnc2c(-c3ccc(C(=O)O)cc3)cn([C@@H](C)c3ccccn3)c2c1
- GI50 (LOX IMVI melanoma): 144 nM
- TGI (LOX IMVI melanoma): 381 nM
- GI50 (NCI-H522 lung): 15 nM
- TGI (NCI-H522 lung): 391 nM
- GI50 ([…]-0 renal): 147 nM
- TGI (786-0 renal): 9.25 µM
- GI50 (SK-MEL-28 melanoma): 699 nM
- TGI (SK-MEL-28 melanoma): > 100 µM
- GI50 (U251 glioblastoma): 1770 nM
- TGI (U251 glioblastoma): 30.1 µM
- GI50 (ACHN renal): 627 nM
- TGI (ACHN renal): 14.9 µM
- GI50 (SF-295 CNS): 1460 nM
- TGI (SF-295 CNS): 28.9 µM
- GI50 (HS 578T breast): 51.4 nM
- TGI (HS 578T breast): 1280 nM
- GI50 (HL-60(TB) leukemia): 16.1 nM
- TGI (HL-60(TB) leukemia): 142 nM
- GI50 (HCT-15 colon): 205 nM
- TGI (HCT-15 colon): 10.8 µM
- GI50 (RXF 393 renal): 254 nM
- TGI (RXF 393 renal): 1290 nM
- GI50 (HCT-116 colon): 552 nM
- TGI (HCT-116 colon): 23.1 µM
- GI50 (SF-539 CNS): 292 nM
- TGI (SF-539 CNS): 1680 nM
- GI50 (A549 NSCLC): 755 nM
- TGI (A549 NSCLC): > 100 µM
- GI50 (UACC-62 melanoma): 37.8 nM
- TGI (UACC-62 melanoma): 1270 nM
- GI50 (SK-MEL-2 melanoma): 46.4 nM
- TGI (SK-MEL-2 melanoma): 14 µM
- TGI (MALME-3M melanoma): 1730 nM
- GI50 (SW-620 colon): 4.75 µM
- TGI (SW-620 colon): 73.9 µM
- GI50 (CCRF-CEM leukemia): 75.8 nM
- TGI (CCRF-CEM leukemia): 2790 nM
- GI50 (M14 melanoma): 209 nM
- TGI (M14 melanoma): 51.9 µM
- GI50 (UO-31 renal): 323 nM
- TGI (UO-31 renal): 13.4 µM
- TGI (CAKI-1 renal): 3.46 µM
- GI50 (T-47D breast): 201 nM
- TGI (T-47D breast): 3.31 µM
- GI50 (SK-MEL-5 melanoma): 61.6 nM
- TGI (SK-MEL-5 melanoma): 3.08 µM
- GI50 (OVCAR-8 ovarian): 234 nM
- TGI (OVCAR-8 ovarian): 2390 nM
- GI50 (DU-145 prostate): 2400 nM
- TGI (DU-145 prostate): > 100 µM
- GI50 (MOLT-4 leukemia): 103 nM
- TGI (MOLT-4 leukemia): 1470 nM
- GI50 (COLO 205 colon): 418 nM
- TGI (COLO 205 colon): 6.01 µM
- GI50 (HOP-62 NSCLC): 228 nM
- TGI (HOP-62 NSCLC): 9.58 µM
- GI50 (MCF7 breast): 15.9 nM
- TGI (MCF7 breast): 3.13 µM
- GI50 (OVCAR-4 ovarian): 167 nM
- TGI (OVCAR-4 ovarian): 739 nM
- GI50 (HCC-2998 colon): 117 nM
- TGI (HCC-2998 colon): 1050 nM
- GI50 (HOP-92 NSCLC): 188 nM
- TGI (HOP-92 NSCLC): 39.4 µM
- GI50 (SF-268 CNS): 1470 nM
- TGI (SF-268 CNS): 27 µM
- GI50 (EKVX NSCLC): 2950 nM
- TGI (EKVX NSCLC): > 100 µM
- GI50 (MDA-MB-435 melanoma): 805 nM
- TGI (MDA-MB-435 melanoma): > 100 µM
- GI50 (K-562 leukemia): 173 nM
- TGI (K-562 leukemia): > 100 µM
- GI50 (MDA-MB-231 breast): 123 nM
- TGI (MDA-MB-231 breast): 23.8 µM
- GI50 (NCI-H460 NSCLC): 3.17 µM
- TGI (NCI-H460 NSCLC): > 100 µM
- GI50 (TK-10 renal): 34.3 nM
- TGI (TK-10 renal): 989 nM
- GI50 (NCI-H23 lung): 366 nM
- TGI (NCI-H23 lung): 6.37 µM
- GI50 (OVCAR-5 ovarian): 525 nM
- TGI (OVCAR-5 ovarian): 27.4 µM
- GI50 (SK-OV-3 ovarian): 445 nM
- TGI (SK-OV-3 ovarian): 9.82 µM
- GI50 (PC-3 prostate): 467 nM
- TGI (PC-3 prostate): > 100 µM
- GI50 (BT-549 breast): 60.1 nM
- TGI (BT-549 breast): 761 nM
- GI50 (A498 renal): 283 nM
- TGI (A498 renal): 2830 nM
- GI50 (KM12 colon): 579 nM
- TGI (KM12 colon): 19.3 µM
- GI50 (OVCAR-3 ovarian): 116 nM
- TGI (OVCAR-3 ovarian): 10.3 µM
- GI50 (SNB-19 CNS): 554 nM
- TGI (SNB-19 CNS): > 100 µM
- GI50 (RPMI-8226 leukemia): 12 nM
- TGI (RPMI-8226 leukemia): 152 nM
- GI50 (MDA-MB-468 breast): 72.1 nM
- TGI (MDA-MB-468 breast): 919 nM
- GI50 (NCI-H322M lung): 619 nM
- TGI (NCI-H322M lung): 58.4 µM
- GI50 (NCI-H226 lung): 406 nM
- TGI (NCI-H226 lung): 7.35 µM
- GI50 (UACC-257 melanoma): 219 nM
- TGI (UACC-257 melanoma): 9.84 µM
- GI50 (NCI/ADR-RES ovarian): 1180 nM
- TGI (NCI/ADR-RES ovarian): 17.2 µM
- GI50 (SN12C renal): 1040 nM
- TGI (SN12C renal): > 100 µM
- GI50 (HT29 colon): 301 nM
- TGI (HT29 colon): > 100 µM
- GI50 (IGROV1 ovarian): 78.7 nM
- TGI (IGROV1 ovarian): 1980 nM
